Data reported in publication PMC4873738, “A Small Molecule Inhibitor of PDK1/PLCγ1 Interaction Blocks Breast and Melanoma Cancer Cell Invasion” (Scientific Reports, 2016).

Target: T1, 3-phosphoinositide-dependent protein kinase 1 (PDK1) (Homo sapiens, UniProt O15530)
T1 construct: gene PDPK1; PH domain, amino-acids 411-552
T1 sequence (O15530 411-552): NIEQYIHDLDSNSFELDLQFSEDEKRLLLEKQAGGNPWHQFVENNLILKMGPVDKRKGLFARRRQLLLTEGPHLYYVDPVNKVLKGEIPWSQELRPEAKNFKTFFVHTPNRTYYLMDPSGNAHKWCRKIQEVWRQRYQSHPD
Experiment: isothermal titration calorimetry with purified recombinant PH domain, […] °C, four experiments, n = […]
Assay type: binding

- Kd: 0.109 ± 0.044 µM
SMILES: O=P(O)(O)O[C@@H]1[C@@H](OP(=O)(O)O)[C@H](OP(=O)(O)O)[C@H](OCc2ccccc2)[C@H](OP(=O)(O)O)[C@H]1OP(=O)(O)O [2-O-Bn-InsP5, 2-O-benzyl-myo-inositol 1,3,4,5,6-pentakisphosphate]
